Tests used:
Assay in all cases: relative viability (nuclei count vs DMSO), 5 days (fraction); higher = more cells survive
NCI-H1944 = system: NCI-H1944
Outline: (§1)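 Medians of duplicate plates are given as relative viability. That measure is the nuclei count in treated wells divided by the count in vehicle wells. Counts were taken on 4× images of lung cancer cell lines in 1536-well plates, 5 days after pin-tool dosing the day after seeding with one drug alone or a fixed anchor-drug dose plus five library-drug doses (not always all listed) in √10 steps.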

NCI-H460 = system: NCI-H460
Outline: as §1

NCI-H2405 = system: NCI-H2405
Outline: as §1

ChaGo-K-1 = system: ChaGo-K-1
Outline: as §1

NCI-H3122 = system: NCI-H3122
Outline: as §1

RERF-LC-KJ = system: RERF-LC-KJ
Outline: as §1

CAL-12T = system: CAL-12T
Outline: as §1

NCI-H2087 = system: NCI-H2087
Outline: as §1

NCI-H1651 = system: NCI-H1651
Outline: as §1

NCI-H1755 = system: NCI-H1755
Outline: as §1

ABC-1 = system: ABC-1
Outline: as §1

UMC-11 = system: UMC-11
Outline: as §1

LU99A = system: LU99A
Outline: as §1

LOU-NH91 = system: LOU-NH91
Outline: as §1

NCI-H1793 = system: NCI-H1793
Outline: as §1

PC-3 [JPC-3] = system: PC-3 [JPC-3]
Outline: as §1

LC-2-ad = system: LC-2-ad
Outline: as §1

NCI-H1395 = system: NCI-H1395
Outline: as §1

NCI-H2170 = system: NCI-H2170
Outline: as §1

NCI-H2228 = system: NCI-H2228
Outline: as §1

With CC(=O)O[C@@]12CO[C@@H]1C[C@H](O)[C@@]1(C)C(=O)[C@H](O)C3=C(C)[C@@H](OC(=O)[C@H](O)[C@@H](NC(=O)OC(C)(C)C)c4ccccc4)C[C@@](O)([C@@H](OC(=O)c4ccccc4)[C@H]21)C3(C)C [Docetaxel] + CCNC(=O)c1noc(-c2cc(C(C)C)c(O)cc2O)c1-c1ccc(CN2CCOCC2)cc1 [Luminespib] (partner 0.01 µM) the relative viability (NCI-H1944; first compound 0.0002 µM) was 0.724, the relative viability (NCI-H1944; first compound 0.000632 µM) was 0.723 and the relative viability (NCI-H1944; first compound 0.002 µM) was 0.635. For the same compound, the relative viability (NCI-H1944; first compound 0.006325 µM) was 0.249, the relative viability (NCI-H1944; first compound 0.02 µM) was 0.114 and the relative viability (NCI-H460; first compound 0.0002 µM) was 0.032. The relative viability (NCI-H460; first compound 0.002 µM) was 0.0279, the relative viability (NCI-H460; first compound 0.006325 µM) was 0.025 and the relative viability (NCI-H460; first compound 0.02 µM) was 0.0187. For the same compound, the relative viability (NCI-H2405; first compound 0.0002 µM) was 0.607, the relative viability (NCI-H2405; first compound 0.000632 µM) was 0.603 and the relative viability (NCI-H2405; first compound 0.002 µM) was 0.486. It also gave a relative viability (NCI-H2405; first compound 0.006325 µM) of 0.33, a relative viability (NCI-H2405; first compound 0.02 µM) of 0.22 and a relative viability (ChaGo-K-1; first compound 0.0002 µM) of 0.528. For the same compound, the relative viability (ChaGo-K-1; first compound 0.000632 µM) was 0.468, the relative viability (ChaGo-K-1; first compound 0.002 µM) was 0.251 and the relative viability (ChaGo-K-1; first compound 0.006325 µM) was 0.228. The relative viability (NCI-H3122; first compound 0.0002 µM) was 0.088, the relative viability (NCI-H3122; first compound 0.000632 µM) was 0.101 and the relative viability (NCI-H3122; first compound 0.002 µM) was 0.104. It also gave a relative viability (NCI-H3122; first compound 0.006325 µM) of 0.0883, a relative viability (NCI-H3122; first compound 0.02 µM) of 0.115 and a relative viability (RERF-LC-KJ; first compound 0.0002 µM) of 1.16. It also gave a relative viability (RERF-LC-KJ; first compound 0.000632 µM) of 0.853, a relative viability (RERF-LC-KJ; first compound 0.002 µM) of 0.353 and a relative viability (RERF-LC-KJ; first compound 0.02 µM) of 0.211. The relative viability (CAL-12T; first compound 0.0002 µM) was 0.413, the relative viability (CAL-12T; first compound 0.000632 µM) was 0.252 and the relative viability (CAL-12T; first compound 0.002 µM) was 0.199. The relative viability (CAL-12T; first compound 0.006325 µM) was 0.168, the relative viability (CAL-12T; first compound 0.02 µM) was 0.136 and the relative viability (NCI-H2087; first compound 0.0002 µM) was 0.166. It also gave a relative viability (NCI-H2087; first compound 0.000632 µM) of 0.189, a relative viability (NCI-H2087; first compound 0.002 µM) of 0.147 and a relative viability (NCI-H2087; first compound 0.006325 µM) of 0.168. It also gave a relative viability (NCI-H2087; first compound 0.02 µM) of 0.124, a relative viability (NCI-H1651; first compound 0.0002 µM) of 0.821 and a relative viability (NCI-H1651; first compound 0.000632 µM) of 0.842. It also gave a relative viability (NCI-H1651; first compound 0.002 µM) of 0.258, a relative viability (NCI-H1651; first compound 0.006325 µM) of 0.27 and a relative viability (NCI-H1651; first compound 0.02 µM) of 0.12. It also gave a relative viability (NCI-H1755; first compound 0.0002 µM) of 0.427, a relative viability (NCI-H1755; first compound 0.000632 µM) of 0.492 and a relative viability (NCI-H1755; first compound 0.002 µM) of 0.271. The relative viability (NCI-H1755; first compound 0.006325 µM) was 0.218, the relative viability (NCI-H1755; first compound 0.02 µM) was 0.151 and the relative viability (ABC-1; first compound 0.0002 µM) was 0.619. The relative viability (ABC-1; first compound 0.000632 µM) was 0.704, the relative viability (ABC-1; first compound 0.002 µM) was 0.231 and the relative viability (ABC-1; first compound 0.006325 µM) was 0.352. The relative viability (ABC-1; first compound 0.02 µM) was 0.338, the relative viability (UMC-11; first compound 0.0002 µM) was 1.02 and the relative viability (UMC-11; first compound 0.000632 µM) was 0.917. It also gave a relative viability (UMC-11; first compound 0.002 µM) of 0.406, a relative viability (UMC-11; first compound 0.006325 µM) of 0.271 and a relative viability (UMC-11; first compound 0.02 µM) of 0.183. For the same compound, the relative viability (LU99A; first compound 0.0002 µM) was 0.218, the relative viability (LU99A; first compound 0.000632 µM) was 0.245 and the relative viability (LU99A; first compound 0.002 µM) was 0.23. For the same compound, the relative viability (LU99A; first compound 0.006325 µM) was 0.193, the relative viability (LU99A; first compound 0.02 µM) was 0.2 and the relative viability (LOU-NH91; first compound 0.0002 µM) was 0.299. For the same compound, the relative viability (LOU-NH91; first compound 0.000632 µM) was 0.384, the relative viability (LOU-NH91; first compound 0.002 µM) was 0.299 and the relative viability (LOU-NH91; first compound 0.006325 µM) was 0.266. For the same compound, the relative viability (LOU-NH91; first compound 0.02 µM) was 0.212, the relative viability (NCI-H1793; first compound 0.0002 µM) was 0.174 and the relative viability (NCI-H1793; first compound 0.002 µM) was 0.238. For the same compound, the relative viability (NCI-H1793; first compound 0.006325 µM) was 0.177, the relative viability (NCI-H1793; first compound 0.02 µM) was 0.134 and the relative viability (PC-3 [JPC-3]; first compound 0.0002 µM) was 0.678. The relative viability (PC-3 [JPC-3]; first compound 0.000632 µM) was 0.684, the relative viability (PC-3 [JPC-3]; first compound 0.002 µM) was 0.5 and the relative viability (PC-3 [JPC-3]; first compound 0.006325 µM) was 0.223. It also gave a relative viability (PC-3 [JPC-3]; first compound 0.02 µM) of 0.141, a relative viability (LC-2-ad; first compound 0.0002 µM) of 0.777 and a relative viability (LC-2-ad; first compound 0.000632 µM) of 0.544. It also gave a relative viability (LC-2-ad; first compound 0.002 µM) of 0.503, a relative viability (LC-2-ad; first compound 0.006325 µM) of 0.445 and a relative viability (NCI-H1395; first compound 0.0002 µM) of 0.699. It also gave a relative viability (NCI-H1395; first compound 0.000632 µM) of 0.771, a relative viability (NCI-H1395; first compound 0.002 µM) of 0.496 and a relative viability (NCI-H1395; first compound 0.006325 µM) of 0.391. The relative viability (NCI-H1395; first compound 0.02 µM) was 0.286, the relative viability (NCI-H2170; first compound 0.0002 µM) was 0.726 and the relative viability (NCI-H2170; first compound 0.000632 µM) was 0.704. For the same compound, the relative viability (NCI-H2170; first compound 0.002 µM) was 0.451, the relative viability (NCI-H2170; first compound 0.006325 µM) was 0.261 and the relative viability (NCI-H2170; first compound 0.02 µM) was 0.148. It also gave a relative viability (NCI-H2228; first compound 0.0002 µM) of 0.146, a relative viability (NCI-H2228; first compound 0.000632 µM) of 0.145 and a relative viability (NCI-H2228; first compound 0.002 µM) of 0.129. It also gave a relative viability (NCI-H2228; first compound 0.006325 µM) of 0.194 and a relative viability (NCI-H2228; first compound 0.02 µM) of 0.19.
